Results published in patent publication US6225306A, “Biphenyl derivatives and drug composition” (Wakamoto Pharmaceutical Co., Ltd., priority 1997, dated 2001).
Where “and” joins values, the source holds several entries; their conditions need not be identical. Equal entries are not always repeated. Structures can show the parent of a compound that is named as a salt. Where two headings read alike, the source gives them in different places.

Experiments:
[1] = tested on: male ICR mice; test: Acute Toxicity Test; format: in vivo
Experimental: To groups of male ICR mice (6-week-old) each consisting of 5 animals, there were orally administered the compounds of Examples 13, 18, 25 and 30 and Comparative Examples 2 and 5 suspended in 5% gum arabic solution at doses of 150, 500 and 1500 mg/kg, followed by observation of the general symptoms of these animals during 7 days after the administration to thus evaluate the number of death. In this respect, mice were given feed and water ad libitum throughout this test except for the term extending from 16 to 20 hours before the administration and 4 hours after the administration.

[2] = tested on: Normal Conscious Rat; test: Aquaretic Effects in Normal Conscious Rat (urine volume); format: in vivo, rat (Sprague-Dawley, male)
Experimental: Aquaretic Effects in Normal Conscious Rat
Studies were performed with Sprague-Dawley male SPF rats (body weight: 240 to 320 g; 8-week-old). In this experiment, each group consisted of not less than 4 animals and rats were fasted over 16 to 20 hours. The animals were acclimatized in metabolic cages for one hour, then each compound to be tested was dissolved in 100% N,N-dimethylformamide or suspended in 5% gum arabic solution and administered to these animals intravenously (iv.) in a dose of 3 mg/kg or orally (p.o.) in a dose of 30 mg/kg. Immediately after the test compound or vehicle were orally administered, saline (25 ml/kg) was given orally. Spontaneous voided urines were collected for 4 hours after the administration of the compound and the amount of the urine were determined. In this case, the control group consisted of animals to which only 5% gum arabic was orally administered.
In addition, known compounds of Comparative Examples 2 and Comparative Examples 3 and 4 represented by the following formulas were used as control compounds.

[3] = molecular target: Vasopressin V1 Receptor (Rattus norvegicus, UniProt P30560); test: biochemical; format: binding, rat (Sprague-Dawley, female; liver crude membrane); settings: for inhibition at 0.1 µM: 1 h, read-out: Binding Rate of Vasopressin V1 Receptor
Experimental: The livers excised from Sprague-Dawley female rats were cut into small pieces, and were homogenized in 50 mM Tris-HCl, pH 7.4 hereunder referred to as "buffer"). The homogenate was centrifuged at 50000×g, at 4° C. for 20 minutes. The pellet was added the buffer in an amount of 10 times the volume of the pellet, the mixture was recentrifuged by the same method as described above to wash the residue. The buffer was further added to the resulting pellet so that the protein content thereof was adjusted to 10 mg/ml to thus give a crude membrane fraction of rat liver. The crude membrane fraction of rat liver was used in the following test. More specifically, 5000 μg of the crude liver membrane was incubated with [^3 H]-Arg-vasopressin V-1 antagonist ([^3 H) vasopressin V1 antagonist: 2 nM) and various concentration (3×10^-12 to 10^-6) of the test compounds in a 1000 μL of buffer containing 10 mM magnesium chloride, 10 mM potassium chloride and 0.1% bovine serum albumin at 25° C. for 60 minutes. Thereafter the incubation mixture was rapidly filtered by vacuum using a cell harvester. The filters were washed with buffer to remove free ligands and excess buffer, and to thus trap labeled ligand linked with the receptor on the filter paper. The filter paper was sufficiently dried and mixed with a liquid scintillator, and the amount of the [^3 H] vasopressin V1 antagonist bonded to the membrane was determined using a liquid scintillation counter. The inhibition rate at each concentration was calculated according to the following equation:
Inhibition Rate (%)=100-[(B-N)/(B0 -N)]×100
Wherein B represents the amount of the [^3 H] vasopressin V1 antagonist bonded to the membrane in the presence of known amounts of the compound to be tested and the [^3 CH] vasopressin V1 antagonist;
B0 represents the amount of the [^3 H] vasopressin V1 antagonist bonded to the membrane in the absence of the compound to be tested;
N represents the amount of the [^3 H] vasopressin V1 antagonist bonded to the membrane in the presence of an excess of vasopressin (10^-6 M).
The IC50 value (the concentration required to cause 50% inhibition of the specific binding of [^3 H]-V1 antagonist) was determined. […] On the other hand, for the compounds which were investigated only one concentration (10^-7 M), the inhibition rate at that concentration was defined to be the binding rate.

[4] = molecular target: Vasopressin V2 Receptor (Rattus norvegicus, UniProt Q00788); test: biochemical; format: binding, rat (Sprague-Dawley, female; kidney crude membrane); settings: for inhibition at 0.1 µM: 1 h, read-out: Binding Rate of Vasopressin V2 Receptor; for IC50: [3H] vasopressin V2 antagonist 2 nM, 25° C., 60 minutes, read-out: Affinity for Vasopressin V2 Receptor, IC50
[5] = 500 mg/kg, oral, 7 days observation
[6] = 1500 mg/kg, oral, 7 days observation
[7] = 10^-7 M, inhibition rate at this concentration
[8] = 150 mg/kg, oral, 7 days observation
[9] = [3H] vasopressin V1 antagonist 2 nM, 25° C., 60 minutes, read-out: Affinity for Vasopressin V1 Receptor, IC50

Sequence of Vasopressin V2 Receptor (Q00788 whole entry): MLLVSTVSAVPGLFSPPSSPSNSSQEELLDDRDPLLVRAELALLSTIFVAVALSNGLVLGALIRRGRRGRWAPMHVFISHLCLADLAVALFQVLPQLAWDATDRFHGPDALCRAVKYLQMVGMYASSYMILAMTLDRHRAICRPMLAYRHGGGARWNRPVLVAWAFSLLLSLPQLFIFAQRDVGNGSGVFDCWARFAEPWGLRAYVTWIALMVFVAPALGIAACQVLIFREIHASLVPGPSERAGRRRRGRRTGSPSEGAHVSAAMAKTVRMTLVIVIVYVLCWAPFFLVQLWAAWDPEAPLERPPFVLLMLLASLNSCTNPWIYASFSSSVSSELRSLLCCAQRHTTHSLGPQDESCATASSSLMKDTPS
Sequence of Vasopressin V1 Receptor (P30560 whole entry): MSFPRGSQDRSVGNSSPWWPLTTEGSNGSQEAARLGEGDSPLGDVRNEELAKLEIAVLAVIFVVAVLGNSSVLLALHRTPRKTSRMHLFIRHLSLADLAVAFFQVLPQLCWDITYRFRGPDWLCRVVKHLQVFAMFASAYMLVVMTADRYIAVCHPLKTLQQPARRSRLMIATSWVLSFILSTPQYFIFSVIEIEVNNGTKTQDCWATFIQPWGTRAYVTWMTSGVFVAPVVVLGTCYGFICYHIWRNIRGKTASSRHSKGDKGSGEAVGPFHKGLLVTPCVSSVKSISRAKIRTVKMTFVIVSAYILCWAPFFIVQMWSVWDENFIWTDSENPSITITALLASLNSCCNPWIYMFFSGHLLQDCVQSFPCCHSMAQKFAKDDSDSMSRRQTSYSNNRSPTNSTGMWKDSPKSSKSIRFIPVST

SMILES | number of death out of 5 or 6 animals [1, 5] | number of death out of 5 or 6 animals [1, 6] | Amount of Urine Volume ([2]; 3 mg/kg, i.v.) [ml/kg/0-4 hr.] | Amount of Urine Volume ([2]; 30 mg/kg, p.o.) [ml/kg/0-4 hr.] | IC50 [3] [nM] | inhibition at 0.1 µM [3] [%] | number of death out of 5 or 6 animals ([1]; mouse, in vivo) | inhibition at 0.1 µM [4] [%] | inhibition at 0.1 µM [3, 7] [%] | inhibition at 0.1 µM [4, 7] [%] | number of death out of 5 or 6 animals [1, 8] | IC50 [3, 9] [nM] | IC50 [4] [nM]
O=C(Nc1ccc(C(=O)N2C[C@H]3C[C@@H](O)CN3c3ccccc32)cc1)c1ccccc1-c1ccccc1 [Example 13, (2R,3aR)-2-Hydroxy-5-[4-[(2-Phenylbenzoyl) Amino]Benzoyl]-1,2,3,3a,4,5-Hexahydro-Pyrrolo[1,2-a]Quinoxaline] | 0/5 | 0/5 | 55.6 | 82.0 |  |  |  |  |  |  |  |  | 
Cc1ccccc1C(=O)Nc1ccc(C(=O)N2CCCC(N(C)C)c3ccccc32)cc1 (centres unmarked) [Comp. Ex. 2, reference compound] |  |  | 22.9 | 79.1 | > 1000 | 3.4 | 4 out of 5 and 0/5 and 4/5 | 91.2 |  |  |  |  | 
O=C(Nc1ccc(C(=O)N2CC[C@@H]3C[C@@H](O)CN3c3ccccc32)cc1)c1ccccc1-c1ccccc1 [Example 50] |  |  | 60.0 | 36.0 |  |  |  |  | 92.4 | 97.8 |  |  | 
O=C(Nc1ccc(C(=O)N2CC[C@H]3C[C@H](O)CN3c3ccccc32)cc1)c1ccccc1-c1ccccc1 [Example 54, (2S, 3aS)-2-Hydroxy-6-[4-[(2-Phenylbenzoyl) Amino]Benzoyl]-2,3,3a,4,5,6-Hexahydro-1H-Pyrrolo[1,2-a][1,5]Benzodiazepine] |  |  | 78.3 | 68.0 |  |  |  |  | 98.6 | 95.1 |  |  | 
Cl.O=C1C[C@@H]2CN(C(=O)c3ccc(NC(=O)c4ccccc4-c4ccccc4)cc3)c3ccccc3CN2C1 [Example 48, (11aR)-10-[4-[(2-Phenylbenzoyl) Amino]Benzoyl]-1,2,3,10,11, 11a-Hexahydro-5H-Pyrrolo[2,1-c][1,4]Benzodiazepin-2-One Hydrochloride] |  |  | 78.9 | 14.8 |  | 42.3 |  | 96.8 |  |  |  |  | 
Cc1nc2c([nH]1)-c1ccccc1N(C(=O)c1ccc(NC(=O)c3ccccc3-c3ccccc3)cc1)CC2 [Comparative Example 5, reference compound] | 2 out of 5 and 2/5 | 2 out of 5 and 2/5 |  |  |  |  |  |  |  |  | 0/5 |  | 
O=C(Nc1ccc(C(=O)N2C[C@@H]3CCCN3C(=O)c3ccccc32)cc1)c1ccccc1-c1ccccc1 [Example 25, (11aS)-10-[4-[(2-Phenylbenzoyl) Amino]Benzoyl]-1,2,3,10,11, 11a-Hexahydro-5H-Pyrrolo[2,1-c][1,4]Benzodiazepin-5-One] | 0/6 | 0/6 | 58.5 | 102.7 |  |  |  |  | 4.1 | 100 | 0/6 | > 1000 | 1.6
Cc1ccc(-c2ccccc2C(=O)Nc2ccc(C(=O)N3C[C@H]4C[C@H](O)CN4c4ccccc43)cc2)cc1 [Example 18, (2S, 3aR)-2-Hydroxy-5-[4-[[2-(4-Tolyl) Benzoyl]Amino]Benzoyl]-1,2,3,3a,4,5-Hexahydro-Pyrrolo[1,2-a]Quinoxaline] | 0/6 | 0/6 | 79.2 | 96.3 |  |  |  |  | 58.3 | 100 | 0/6 | 66 | 0.18
Cc1ccc(-c2ccccc2C(=O)Nc2ccc(C(=O)N3C[C@H]4C[C@H](N(C)C)CN4c4ccccc43)cc2)cc1 [Example 22, (2S, 3aR)-2-(N,N-Dimethylamino)-5-[4-[[2-(4-Tolyl) Benzoy]Amino]Benzoyl]-1,2,3,3a,4,5-Hexahydro-Pyrrolo[1,2-a]Quinoxaline Hydrochloride] |  |  | 58.8 | 79.6 |  |  |  |  | 33.5 | 100 |  |  | 
O=C(Nc1ccc(C(=O)N2C[C@H]3CCCN3c3ccccc32)cc1)c1ccccc1-c1ccccc1 [Example 11, (3aR)-5-[4-[(2-Phenylbenzoyl) Amino]Benzoyl]-1,2,3,3a,4,5-Hexahydro-Pyrrolo[1,2-a]Quinoxaline] |  |  | 56.5 | 69.6 |  |  |  |  | 34 | 100 |  |  | 
O=C(Nc1ccc(C(=O)N2C[C@H]3C[C@H](O)CN3c3ccccc32)cc1)c1ccccc1-c1ccccc1 [Example 17, (2S, 3aR)-2-Hydroxy-5-[4-[(2-Phenylbenzoyl) Amino]Benzoyl]-1,2,3,3a,4,5-Hexahydro-Pyrrolo[1,2-a]Quinoxaline] |  |  | 58.6 | 26.3 |  |  |  |  | 52.4 | 100 |  |  | 
O=C(Nc1ccc(C(=O)N2CC[C@H]3C[C@@H](O)CN3c3ccccc32)cc1)c1ccccc1-c1ccccc1 [Example 52, (2R,3aS)-2-Hydroxy-6-[4-[(2-Phenylbenzoyl) Amino]Benzoyl]-2,3,3a,4,5,6-Hexahydro-1H-Pyrrolo[1,2-a][1,5]Benzodiazepine] |  |  | 60.6 | 36.6 |  |  |  |  | 95.7 | 100 |  |  | 
Cc1ccc(-c2ccccc2C(=O)Nc2ccc(C(=O)N3C[C@@H]4CCCN4C(=O)c4ccccc43)cc2)cc1 [Example 26, (11aS)-10-[4-[[2-(4-Tolyl) Benzoyl]Amino]Benzoyl]-1,2,3,10,11,11a-Hexahydro-5H-Pyrrolo[2,1-c][1,4]Benzodiazepin-5-One] |  |  | 72.3 | 88.3 |  |  |  |  | 4 | 100 |  |  | 
Cc1ccc(-c2ccccc2C(=O)Nc2ccc(C(=O)N3C[C@H]4CC(=O)CN4c4ccccc43)cc2)cc1 [Example 24] |  |  | 49.4 | 46.1 |  |  |  |  | 16.5 | 100 |  |  | 
O=C(Nc1ccc(C(=O)N2C[C@@H]3C[C@H](O)CN3C(=O)c3ccccc32)cc1)c1ccccc1-c1ccccc1 [Example 29, (2S, 11aS)-2-Hydroxy-10-[4-[(2-Phenylbenzoyl) Amino]Benzoyl]-1,2,3,10,11,11a-Hexahydro-5H-Pyrrolo[2,1-c][1,4]Benzodiazepin-5-One] |  |  | 50.4 | 14.0 |  |  |  |  | 18.9 | 99.5 |  |  | 
O=C1C[C@H]2CN(C(=O)c3ccc(NC(=O)c4ccccc4-c4ccccc4)cc3)c3ccccc3C(=O)N2C1 [Example 30, (11aS)-10-[4-[(2-Phenylbenzoyl) Amino]Benzoyl]-1,2,3,10,11, 11a-Hexahydro-5H-Pyrrolo [2,1-c][1,4]Benzodiazepin-2,5-Dione] | 0/6 | 0/6 | 57.1 | 103.0 |  |  |  |  |  |  | 0/6 |  | 
CN(C)[C@H]1C[C@@H]2CN(C(=O)c3ccc(NC(=O)c4ccccc4-c4ccccc4)cc3)c3ccccc3N2C1 [Example 21, (2S, 3aR)-2-(N,N-Dimethylamino)-5-[4-[(2-Phenylbenzoyl) Amino]Benzoyl]-1,2,3,3a,4,5-Hexahydro-Pyrrolo[1,2-a]Quinoxaline] |  |  | 47.6 | 81.4 |  |  |  |  | 19.5 | 100 |  |  | 
